# PMC10648852, “Molecular drivers of resistance to sulbactam-durlobactam in contemporary clinical isolates of Acinetobacter baumannii” (Antimicrobial Agents and Chemotherapy, 2023)
# Assays:
# Test in all cases: microbe, parasite or virus in culture
# [1] = tested on: ABC clinical isolates with SUL-DUR MIC > 4 µg/mL; format: cell-based, Acinetobacter baumannii-calcoaceticus complex
# Method: (§1) The following report describes the genomic analysis of these isolates for likely resistance mechanisms. Biochemical analysis of purified PBP3 and phenotypic analyses of both clinical and isogenic strains were also conducted to determine the relative impact of key resistance determinants to SUL-DUR antibacterial activity.
# (§2) Antimicrobial susceptibility testing was performed using broth microdilution following standardized methods established by the Clinical Laboratory Standards Institute (CLSI) ([35], [36]). […] MIC values were interpreted using CLSI breakpoints for all antimicrobial agents except those for which CLSI breakpoints are not available ([35]). SUL-DUR was tested as twofold dilutions of sulbactam in combination with a fixed concentration of 4 µg/mL durlobactam ([35]).
# [2] = tested on: A. nosocomialis clinical isolate; format: cell-based; conditions: isolate ARC7023 (IHMA 2118812), France, BSI, 2019
# Method: as §1, §2
# [3] = tested on: A. pittii clinical isolates; format: cell-based
# Method: as §1, §2
# [4] = tested on: A. baumannii clinical isolates; format: cell-based
# Method: as §1, §2
compound,measurement,setting,value
CN(C)c1ccc(O)c2c1C[C@H]1C[C@H]3[C@H](N(C)C)C(O)=C(C(N)=O)C(=O)[C@@]3(O)C(O)=C1C2=O [MIN],MIC50,[1],2 µg/mL
same,MIC90,[1],16 µg/mL
same,MIC Max,[1],>16 µg/mL
same,MIC Min,[1],≤0.12 µg/mL
same,%NS (% non-susceptibility),"[1]; 64 non-clonal ABC isolates, 2023 CLSI breakpoints plus FDA breakpoint of 4 µg/mL for SUL-DUR",27%
same,MIC,[2],0.5 µg/mL
same,MIC,"[3]; isolate ARC6949 (IHMA 1898982), Romania, RTI, 2018",0.5 µg/mL
same,MIC,"[3]; isolate ARC6951 (IHMA 1776233), Philippines, RTI, 2018",0.25 µg/mL
same,MIC,"[3]; isolate ARC6952 (IHMA 1899008), Romania, RTI, 2018",1 µg/mL
same,MIC,"[3]; isolate ARC7087 (IHMA 2212062), Colombia, BSI, 2020",≤0.12 µg/mL
same,MIC,"[4]; isolate ARC6644 (IHMA 1420327), Mexico, UTI, 2016",8 µg/mL
same,MIC,"[4]; isolate ARC6645 (IHMA 1435703), France, UTI, 2016",0.5 µg/mL
same,MIC,"[4]; isolate ARC6646 (IHMA 1484127), United States, RTI, 2016",8 µg/mL
same,MIC,"[4]; isolate ARC6647 (IHMA 1386786), Argentina, RTI, 2016",1 µg/mL
same,MIC,"[4]; isolate ARC6648 (IHMA 1407634), Spain, RTI, 2016",1 µg/mL
same,MIC,"[4]; isolate ARC6650 (IHMA 1457337), Argentina, RTI, 2016",4 µg/mL
same,MIC,"[4]; isolate ARC6652 (IHMA 1465642), Belgium, RTI, 2016",≤0.12 µg/mL
same,MIC,"[4]; isolate ARC6653 (IHMA 1308777), Vietnam, RTI, 2016",16 µg/mL
same,MIC,"[4]; isolate ARC6799 (IHMA 1562935), Spain, UTI, 2017",>16 µg/mL
same,MIC,"[4]; isolate ARC6800 (IHMA 1557526), Turkey, RTI, 2017",2 µg/mL
same,MIC,"[4]; isolate ARC6801 (IHMA 1662094), Thailand, RTI, 2017",0.5 µg/mL
same,MIC,"[4]; isolate ARC6802 (IHMA 1557073), Spain, UTI, 2017",>16 µg/mL
same,MIC,"[4]; isolate ARC6803 (IHMA 1589408), Belgium, UTI, 2017",≤0.12 µg/mL
same,MIC,"[4]; isolate ARC6805 (IHMA 1558650), United States, RTI, 2017",8 µg/mL
same,MIC,"[4]; isolate ARC6808 (IHMA 1557168), Spain, RTI, 2017",16 µg/mL
same,MIC,"[4]; isolate ARC6809 (IHMA 1699528), Guatemala, RTI, 2017",≤0.12 µg/mL
same,MIC,"[4]; isolate ARC6810 (IHMA 1699548), Guatemala, RTI, 2017",1 µg/mL
same,MIC,"[4]; isolate ARC6812 (IHMA 1699530), Guatemala, RTI, 2017",0.25 µg/mL
same,MIC,"[4]; isolate ARC6813 (IHMA 1699543), Guatemala, UTI, 2017",0.25 µg/mL
same,MIC,"[4]; isolate ARC6814 (IHMA 1699512), Guatemala, RTI, 2017",4 µg/mL
same,MIC,"[4]; isolate ARC6815 (IHMA 1699513), Guatemala, RTI, 2017",0.25 µg/mL
same,MIC,"[4]; isolate ARC6816 (IHMA 1699521), Guatemala, RTI, 2017",8 µg/mL
same,MIC,"[4]; isolate ARC6817 (IHMA 1699523), Guatemala, RTI, 2017",≤0.12 µg/mL
same,MIC,"[4]; isolate ARC6818 (IHMA 1683261), Thailand, RTI, 2017",≤0.12 µg/mL
same,MIC,"[4]; isolate ARC6819 (IHMA 1683267), Thailand, RTI, 2017",8 µg/mL
same,MIC,"[4]; isolate ARC6820 (IHMA 1647876), Argentina, RTI, 2017",4 µg/mL
same,MIC,"[4]; isolate ARC6821 (IHMA 1699517), Guatemala, RTI, 2017",≤0.12 µg/mL
same,MIC,"[4]; isolate ARC6822 (IHMA 1637626), Guatemala, RTI, 2017",0.25 µg/mL
same,MIC,"[4]; isolate ARC6823 (IHMA 1620872), Greece, SSSI, 2017",8 µg/mL
same,MIC,"[4]; isolate ARC6824 (IHMA 1625487), Argentina, BSI, 2017",2 µg/mL
same,MIC,"[4]; isolate ARC6937 (IHMA 1562926), Spain, UTI, 2017",>16 µg/mL
same,MIC,"[4]; isolate ARC6950 (IHMA 1820064), Israel, RTI, 2018",2 µg/mL
same,MIC,"[4]; isolate ARC6953 (IHMA 1909827), Turkey, IAI, 2018",0.5 µg/mL
same,MIC,"[4]; isolate ARC6954 (IHMA 1838192), Guatemala, SSSI, 2018",0.5 µg/mL
same,MIC,"[4]; isolate ARC6955 (IHMA 1825425), United States, RTI, 2018",2 µg/mL
same,MIC,"[4]; isolate ARC7008 (IHMA 2009813), Thailand, BSI, 2019",4 µg/mL
same,MIC,"[4]; isolate ARC7009 (IHMA 2043611), United States, UTI, 2019",2 µg/mL
same,MIC,"[4]; isolate ARC7010 (IHMA 2043398), United States, RTI, 2019",1 µg/mL
same,MIC,"[4]; isolate ARC7011 (IHMA 2104553), Germany, RTI, 2019",2 µg/mL
same,MIC,"[4]; isolate ARC7012 (IHMA 2010001), Thailand, RTI, 2019",2 µg/mL
same,MIC,"[4]; isolate ARC7013 (IHMA 1962831), Argentina, RTI, 2019",1 µg/mL
same,MIC,"[4]; isolate ARC7014 (IHMA 2045328), Guatemala, IAI, 2019",16 µg/mL
same,MIC,"[4]; isolate ARC7015 (IHMA 2045327), Guatemala, UTI, 2019",0.25 µg/mL
same,MIC,"[4]; isolate ARC7016 (IHMA 2148441), Brazil, BSI, 2019",0.5 µg/mL
same,MIC,"[4]; isolate ARC7017 (IHMA 2148446), Brazil, BSI, 2019",0.25 µg/mL
same,MIC,"[4]; isolate ARC7018 (IHMA 2045454), Guatemala, IAI, 2019",0.25 µg/mL
same,MIC,"[4]; isolate ARC7019 (IHMA 2114463), Thailand, RTI, 2019",1 µg/mL
same,MIC,"[4]; isolate ARC7020 (IHMA 2045326), Guatemala, RTI, 2019",0.5 µg/mL
same,MIC,"[4]; isolate ARC7021 (IHMA 1966347), Guatemala, RTI, 2019",0.25 µg/mL
same,MIC,"[4]; isolate ARC7022 (IHMA 2045319), Guatemala, IAI, 2019",1 µg/mL
same,MIC,"[4]; isolate ARC7024 (IHMA 2059448), Turkey, RTI, 2019",2 µg/mL
same,MIC,"[4]; isolate ARC7025 (IHMA 2002121), Spain, RTI, 2019",8 µg/mL
same,MIC,"[4]; isolate ARC7026 (IHMA 2104494), Guatemala, BSI, 2019",2 µg/mL
same,MIC,"[4]; isolate ARC7082 (IHMA 2160640), Belgium, BSI, 2020",16 µg/mL
same,MIC,"[4]; isolate ARC7083 (IHMA 2163687), United States, RTI, 2020",16 µg/mL
same,MIC,"[4]; isolate ARC7084 (IHMA 2189596), Germany, RTI, 2020",1 µg/mL
same,MIC,"[4]; isolate ARC7085 (IHMA 2205747), Guatemala, IAI, 2020",1 µg/mL
same,MIC,"[4]; isolate ARC7086 (IHMA 2207563), Israel, RTI, 2020",2 µg/mL
same,MIC,"[4]; isolate ARC7088 (IHMA 2215554), Turkey, BSI, 2020",16 µg/mL
same,MIC,"[4]; isolate ARC7089 (IHMA 2240345), Argentina, BSI, 2020",2 µg/mL
same,MIC,"[4]; isolate ARC7090 (IHMA 2244410), Poland, RTI, 2020",4 µg/mL
same,MIC,"[4]; isolate ARC7091 (IHMA 2244564), Australia, RTI, 2020",≤0.12 µg/mL
same,MIC,"[4]; isolate ARC7092 (IHMA 2258772), United States, BSI, 2020",4 µg/mL
same,MIC,"[4]; isolate ARC7093 (IHMA 2258783), United States, RTI, 2020",8 µg/mL
same,MIC,"[4]; isolate ARC7094 (IHMA 2296423), Turkey, RTI, 2020",2 µg/mL
same,MIC,"[4]; isolate ARC7095 (IHMA 2320843), Turkey, BSI, 2020",8 µg/mL
same,MIC,"[4]; isolate ARC7156 (IHMA 2455450), Greece, RTI, 2021",>16 µg/mL
same,MIC,"[4]; isolate ARC7158 (IHMA 2523738), Italy, BSI, 2021",2 µg/mL
same,MIC,"[4]; isolate ARC7159 (IHMA 2456229), Malaysia, RTI, 2021",4 µg/mL
same,MIC,"[4]; isolate ARC7160 (IHMA 2458626), Thailand, RTI, 2021",1 µg/mL
same,MIC,"[4]; isolate ARC7161 (IHMA 2429252), Ukraine, RTI, 2021",16 µg/mL
same,MIC,"[4]; isolate ARC7162 (IHMA 2411847), United States, BSI, 2021",2 µg/mL
same,MIC,"[4]; isolate ARC7163 (IHMA 2477704), United States, BSI, 2021",2 µg/mL
